Among the data in the Kinase Knowledgebase extract (Sharma et al. 2016) are IC50 values, retold here.

The target in this assay is MAPK14 (human) (UniProt Q16539). Kind of assay: Inhibition of MAPK14 Kinase Activity.
MAPK14 (human), sequence (Q16539 whole entry, looked up): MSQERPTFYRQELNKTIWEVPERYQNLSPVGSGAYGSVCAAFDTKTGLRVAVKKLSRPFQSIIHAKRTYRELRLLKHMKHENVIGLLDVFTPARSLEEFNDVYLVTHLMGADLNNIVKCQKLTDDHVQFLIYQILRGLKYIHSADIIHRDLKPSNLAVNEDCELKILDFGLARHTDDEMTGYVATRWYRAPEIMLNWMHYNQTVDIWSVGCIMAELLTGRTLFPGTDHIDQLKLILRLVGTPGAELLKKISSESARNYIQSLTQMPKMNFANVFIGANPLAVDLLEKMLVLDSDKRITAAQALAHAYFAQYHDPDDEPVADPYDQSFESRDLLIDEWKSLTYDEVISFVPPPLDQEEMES

As to `COc1cc(-c2cnoc2-c2ccc(F)cc2)ccn1`, the concentration for half-maximal inhibition (IC50) (as a rule, the concentration needed to halve the response being measured) was determined as 50000 nM. The value for `CN1CCC(O)(c2nc(-c3ccc(F)cc3)c(-c3ccncc3)o2)CC1` was 350 nM; that for `CCOc1cc(-c2cnoc2-c2ccc(F)cc2)ccn1` was 82000 nM; that for `CN1CCC(O)(c2nc(-c3ccncc3)c(-c3ccc(F)cc3)o2)CC1` was 2000 nM.

On to `Fc1ccc(-c2[nH]c(-c3ccc(Cl)cc3)cc2-c2ccncc2)cc1`, for which the IC50 is 200 nM. The value for `Fc1ccc(-c2oncc2-c2ccncc2)cc1` was 41000 nM; that for `Fc1ccc(-c2oncc2-c2ccnc(Br)c2)cc1` was 89000 nM.

As to `C[S+]([O-])c1ccc(-c2cc(-c3ccc(F)cc3)c(-c3ccncc3)[nH]2)cc1` (stereo not drawn), the IC50 came to 1220 nM. The value for `Fc1ccc(-c2oc(-c3ccc(Cl)cc3)cc2-c2ccncc2)cc1` was 630 nM; that for `Fc1ccc(-c2oncc2-c2ccnc(OCCc3ccccc3)c2)cc1` was 34000 nM; that for `Fc1ccc(-c2oncc2-c2ccnc(Cl)c2)cc1` was 42000 nM. Compound `CC(C)Oc1cc(-c2cnoc2-c2ccc(F)cc2)ccn1` gave an IC50 of 31000 nM. For the compound `CCOc1cc(-c2c(C(C)C)noc2-c2ccc(F)cc2)ccn1`, the IC50 is 56000 nM.

`CCCNc1cc(-c2c(C(C)C)noc2-c2ccc(F)cc2)ccn1` showed an IC50 of 4000 nM. The value for `Fc1ccc(-c2conc2-c2ccncc2)cc1` was 1220 nM; that for `CC(C)c1noc(-c2ccc(F)cc2)c1-c1ccnc(NCC2CC2)c1` was 1300 nM; that for `CC(C)c1noc(-c2ccc(F)cc2)c1-c1ccnc(NC2CC2)c1` was 2000 nM.

In turn, `CCCCCNc1cc(-c2c(C(C)C)noc2-c2ccc(F)cc2)ccn1` displayed an IC50 of 82000 nM.

Take `CCCCOc1cc(-c2cnoc2-c2ccc(F)cc2)ccn1`: the 50% inhibitory concentration (IC50) was 21000 nM.

`CN1CCC(O)(c2nc(-c3ccc(F)cc3)c(-c3ccncc3)[nH]2)CC1` registered an IC50 of 90 nM. This IC50 lies about 230-fold lower than the previous one. `Fc1ccc(-c2nc[nH]c2-c2ccncc2)cc1`: the IC50 turned out to be 170 nM. Compared with the last compound, the IC50 is about 1.9-fold higher. The value for `Nc1onc(-c2ccncc2)c1-c1ccc(F)cc1` was 1610 nM. The value for `CC(C)c1noc(-c2ccc(F)cc2)c1-c1ccnc(NC(C)c2ccccc2)c1` (stereo not drawn) was 550 nM.
